# Measurements published in US8044100B2, “Methods and compositions for treating amyloid-related diseases” (Bellus Health Inc., priority 2004, dated 2011).
# System: Aβ peptides (Aβ40, Aβ42) in the plasma and brain of TgCRND8 mice
# Experiment: Short term treatment (14 or 28 days) in TgCRND8 mice: Aβ levels in plasma and brain by ELISA;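 for Aβ40 Change Insoluble: symbols grade percent change in Aβ versus untreated control with plus for increase and minus for decrease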;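 for Aβ40 Change Soluble: symbols grade percent change in Aβ versus untreated control with plus for increase and minus for decrease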;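 for Aβ42 Change Insoluble: symbols grade percent change in Aβ versus untreated control with plus for increase and minus for decrease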
# Type: in vivo, mouse
# Settings: for Aβ40 Change Insoluble / Aβ42 Change Insoluble / Aβ42 Change Soluble / Aβ40 Change Soluble: brain homogenate; for Aβ42 Change / Aβ40 Change: plasma
# Method: The short term therapeutic effect of 19 compounds of the invention was studied. These compounds were administered over a 14 or 28 day period at the end of which the levels of Aβ peptides in the plasma and brain of TgCRND8 animals were determined.
# Male and female transgenic mice from the 3rd and 4th B6C3F1 generations were used in this example and given daily subcutaneous or oral administrations of one of a series of compounds for 14 or 28 days. The following abbreviations are used to designate these animals from the 3rd and 4th generation backcross in the present protocol: TgCRND8-2.B6C3F1(N3); TgCRND8-2.B6C3F1 (N4).
# Baseline animals (Group 1) consisted of naive TgCRND8-2. B6C3F1(N3) at 11±1 weeks of age. These mice were used to determine the Aβ levels in the plasma and brain of naive transgenic animals at the initiation of treatment.
# Starting at 11 weeks of age (±1 week) animals received daily administration of their respective treatment for a period of 14 or 28 days (groups 2-21), at a dose of 250 mg/kg at 10 ml/kg or of vehicle only (water; group 2) or 1% methyl cellulose only (group 21). The route of administration was subcutaneous for water-soluble compounds and oral for compounds solubilized in methylcellulose 1%. (MC 1%). At the end of the treatment periods, plasma and perfused brains were collected for quantification of Aβ levels.
# At 11±1 weeks of age for the Baseline group, and at the end of the treatment period (14 or 28 days) for Groups 2 to 21, at 24 hours after the last compound administration animals were sacrificed and samples collected. An approximate blood volume of 500 μl was collected from the orbital sinus and kept on ice until centrifugation at 4° C. at a minimum speed of 3,000 rpm for 10 minutes. Plasma samples were immediately frozen and stored at −80° C. pending analysis. The brains were removed, frozen, and stored at −80° C. awaiting analysis.
# Brains were weighted frozen and homogenized with 4 volumes of ice cold 50 mM Tris-Cl pH 8.0 buffer with protease inhibitor cocktail (4 mL of buffer for 1 g of wet brain). Samples were spun at 15000 g for 20 minutes and the supernatants were transferred to fresh tubes. One hundred fifty (150) μl from each supernatant were mixed with 250 μl of 8M guanidine-HCL/50 mM Tris-HCL pH 8.0 (ratio of 0.6 vol supernatant:1 vol 8M guanidium/Tris-HCL 50 mM pH8.0) and 400 μL 5 M guanidium/Tris-HCL 50 mM pH8.0 were added. The tubes were vortexed for 30 seconds and frozen at −80° C. In parallel, pellets were treated with 7 volumes of 5 M guanidine-HCL/50 mM Tris-HCL pH 8.0 (7 mL of guanidine for 1 g of wet brain), vortexed for 30 seconds and frozen at −80° C. Samples were thawed at room temperature, sonicated at 80° C. for 15 minutes and frozen again. This cycle was repeated 3 times to ensure homogeneity and samples were returned to −80° C. pending analysis.
# Aβ levels were evaluated in plasma and brain samples by ELISA using Human Aβ40 and Aβ42 Fluorometric ELISA kits from Biosource (Cat. No. 89-344 and 89-348) according to manufacturer's recommended procedures. In short, samples were thawed at room temperature, sonicated for 5 minutes at 80° C. (sonication for brain homogenates; no sonication for plasma samples) and kept on ice. Aβ peptides were captured using 100 μl of the diluted samples to the plate and incubated without shaking at 4° C. overnight. The samples were aspirated and the wells were rinsed 4 times with wash buffer obtained from the Biosource ELISA kit. The anti-Aβ40 or anti-Aβ42 rabbit polyclonal antiserum (specific for the Aβ40 or Aβ42 peptide) was added (100 μl) and the plate was incubated at room temperature for 2 hours with shaking. The wells were aspirated and washed 4 times before adding 100 μl of the alkaline phosphatase labeled anti-rabbit antibody and incubating at room temperature for 2 hours with shaking. The plates were then rinsed 5 times and the fluorescent substrate (100 μl) was added to the plate. […]
# [1] = Day 14, methylcellulose group, daily oral
# [2] = Day 28, methylcellulose group, daily oral
# [3] = Day 14, vehicle group, 250 mg/kg daily
# [4] = Day 28, vehicle group, 250 mg/kg daily
# [5] = Day 14, vehicle (water) group, 250 mg/kg daily subcutaneous
Structure (SMILES),Aβ40 Change Insoluble [1],Aβ42 Change Insoluble [1],Aβ42 Change Soluble [1],Aβ40 Change Insoluble [2],Aβ40 Change Soluble [2],Aβ42 Change Insoluble [2],Aβ42 Change Soluble [2],Aβ42 Change [2],levels of Aβ peptides in the plasma (after 14 and 28 days of treatment),Aβ40 Change Insoluble [3],Aβ40 Change Soluble [3],Aβ42 Change Insoluble [3],Aβ42 Change Soluble [3],Aβ40 Change Insoluble [4],Aβ40 Change Soluble [4],Aβ42 Change Insoluble [4],Aβ42 Change Soluble [4],Aβ40 Change [5],Aβ42 Change [5],"Aβ40 Change (Day 28, vehicle (water) group, 250 mg/kg daily subcutaneous)"
O=S(=O)(O)CCCNC12CC3CC(CC(C3)C1)C2 [BW],−−− (decreases of 39% or more),−−− (decreases of 39% or more),−− (decreases of 20 to 38%),− (Decreases in the levels of Aβ of 5 to 19%),− (Decreases in the levels of Aβ of 5 to 19%),−− (decreases of 20 to 38%),− (Decreases in the levels of Aβ of 5 to 19%),+ (increases in the levels of Aβ (relative to untreated control) of 20 to 39%),–,–,–,–,–,–,–,–,–,–,–,–
"CC(C)(C)NCCCS(=O)(=O)O [BX, 3-(t-butyl)amino-1-propanesulfonic acid]",–,–,–,–,–,–,–,–,significant increase,−−− (decreases of 39% or more),− (Decreases in the levels of Aβ of 5 to 19%),−−− (decreases of 39% or more),−− (decreases of 20 to 38%),−−− (decreases of 39% or more),−−− (decreases of 39% or more),− (Decreases in the levels of Aβ of 5 to 19%),−− (decreases of 20 to 38%),+++ (increases of 70% or higher),++ (increases of 40 to 69%),+++ (increases of 70% or higher)
